Assay results as given in ChEMBL document CHEMBL1137017, “In vitro antiviral activity and cross-resistance profile of PL-100, a novel protease inhibitor of human immunodeficiency virus type 1” (Antimicrob Agents Chemother, 2007).

What was measured:
[1] = tested on: Human immunodeficiency virus 1; assay: Resistance index, ratio of EC50 for HIV1 with protease 46L/48V/82A/90M mutation to EC50 for wild type HIV1 NL4-3 in HEK293 cells after 48 hrs by replication-deffective luciferase reporter gene-based phenotypic assay; assay type: functional
[2] = tested on: Human immunodeficiency virus 1; assay: Resistance index, ratio of EC50 for HIV1 with protease 33F/54V/82T/84V/90M mutation to EC50 for wild type HIV1 NL4-3 in HEK293 cells after 48 hrs by replication-deffective luciferase reporter gene-based phenotypic assay; assay type: functional
[3] = tested on: Human immunodeficiency virus 1; assay: Resistance index, ratio of EC50 for HIV1 with protease 33I/46I/84V/88D/90M mutation to EC50 for wild type HIV1 NL4-3 in HEK293 cells after 48 hrs by replication-deffective luciferase reporter gene-based phenotypic assay; assay type: functional
[4] = tested on: Human immunodeficiency virus 1; assay: Resistance index, ratio of EC50 for HIV1 with protease 32I/46I/47V/50L mutation to EC50 for wild type HIV1 NL4-3 in HEK293 cells after 48 hrs by replication-deffective luciferase reporter gene-based phenotypic assay; assay type: functional
[5] = tested on: Human immunodeficiency virus 1; assay: Resistance index, ratio of EC50 for HIV1 with protease 33F/50V mutation to EC50 for wild type HIV1 NL4-3 in HEK293 cells after 48 hrs by replication-deffective luciferase reporter gene-based phenotypic assay; assay type: functional
[6] = Cytotoxicity against human MT4 cells after 6 days by MTT assay; assay type: cell-based
[7] = tested on: Human immunodeficiency virus 1; assay: Resistance index, ratio of EC50 for HIV1 with protease 33F/46I/53L/82A/84V mutation to EC50 for wild type HIV1 NL4-3 in HEK293 cells after 48 hrs by replication-deffective luciferase reporter gene-based phenotypic assay; assay type: functional
[8] = tested on: Human immunodeficiency virus 1; assay: Resistance index, ratio of EC50 for HIV1 with protease 48V/82A/84V/90M mutation to EC50 for wild type HIV1 NL4-3 in HEK293 cells after 48 hrs by replication-deffective luciferase reporter gene-based phenotypic assay; assay type: functional
[9] = tested on: Human immunodeficiency virus 1; assay: Resistance index, ratio of EC50 for HIV1 with protease 84V/90M mutation to EC50 for wild type HIV1 NL4-3 in HEK293 cells after 48 hrs by replication-deffective luciferase reporter gene-based phenotypic assay; assay type: functional
[10] = tested on: Human immunodeficiency virus 1; assay: Resistance index, ratio of EC50 for HIV1 with protease 46I/50V/90M mutation to EC50 for wild type HIV1 NL4-3 in HEK293 cells after 48 hrs by replication-deffective luciferase reporter gene-based phenotypic assay; assay type: functional
[11] = tested on: Human immunodeficiency virus 1; assay: Resistance index, ratio of EC50 for HIV1 with protease 48V/54V/82A/90M mutation to EC50 for wild type HIV1 NL4-3 in HEK293 cells after 48 hrs by replication-deffective luciferase reporter gene-based phenotypic assay; assay type: functional
[12] = tested on: Human immunodeficiency virus 1; assay: Resistance index, ratio of EC50 for HIV1 with protease 33F/54V/73S/82A/84V/90M mutation to EC50 for wild type HIV1 NL4-3 in HEK293 cells after 48 hrs by replication-deffective luciferase reporter gene-based phenotypic assay; assay type: functional
[13] = tested on: Human immunodeficiency virus 1; assay: Resistance index, ratio of EC50 for HIV1 with protease 33F/46L/54V/82A/84V/90M mutation to EC50 for wild type HIV1 NL4-3 in HEK293 cells after 48 hrs by replication-deffective luciferase reporter gene-based phenotypic assay; assay type: functional
[14] = tested on: Human immunodeficiency virus 1; assay: Resistance index, ratio of EC50 for HIV1 with protease 24I/33F/46I/54L/82A mutation to EC50 for wild type HIV1 NL4-3 in HEK293 cells after 48 hrs by replication-deffective luciferase reporter gene-based phenotypic assay; assay type: functional
[15] = tested on: Human immunodeficiency virus 1; assay: Resistance index, ratio of EC50 for HIV1 with protease 46L/48V/82A/84V/90M mutation to EC50 for wild type HIV1 NL4-3 in HEK293 cells after 48 hrs by replication-deffective luciferase reporter gene-based phenotypic assay; assay type: functional
[16] = tested on: Human immunodeficiency virus 1; assay: Resistance index, ratio of EC50 for HIV1 with protease 37S/41K/70E mutation to EC50 for wild type HIV1 NL4-3 in HEK293 cells after 48 hrs by replication-deffective luciferase reporter gene-based phenotypic assay; assay type: functional
[17] = tested on: Human immunodeficiency virus 1; assay: Resistance index, ratio of EC50 for HIV1 with protease 46I/54V/82A/84V mutation to EC50 for wild type HIV1 NL4-3 in HEK293 cells after 48 hrs by replication-deffective luciferase reporter gene-based phenotypic assay; assay type: functional
[18] = tested on: Human immunodeficiency virus 1; assay: Resistance index, ratio of EC50 for HIV1 with protease 33F/46L/53L/54V/82A mutation to EC50 for wild type HIV1 NL4-3 in HEK293 cells after 48 hrs by replication-deffective luciferase reporter gene-based phenotypic assay; assay type: functional
[19] = tested on: Human immunodeficiency virus 1; assay: Resistance index, ratio of EC50 for HIV1 with protease 30N/88D/90M mutation to EC50 for wild type HIV1 NL4-3 in HEK293 cells after 48 hrs by replication-deffective luciferase reporter gene-based phenotypic assay; assay type: functional
[20] = tested on: Human immunodeficiency virus 1; assay: Resistance index, ratio of EC50 for HIV1 with protease 33F/54L/88S/90M mutation to EC50 for wild type HIV1 NL4-3 in HEK293 cells after 48 hrs by replication-deffective luciferase reporter gene-based phenotypic assay; assay type: functional
[21] = tested on: Human immunodeficiency virus 1; assay: Resistance index, ratio of EC50 for HIV1 with protease 46L/54V/82A/90M mutation to EC50 for wild type HIV1 NL4-3 in HEK293 cells after 48 hrs by replication-deffective luciferase reporter gene-based phenotypic assay; assay type: functional
[22] = tested on: Human immunodeficiency virus 1; assay: Resistance index, ratio of EC50 for HIV1 with protease 33F/54V/73S/82A/90M mutation to EC50 for wild type HIV1 NL4-3 in HEK293 cells after 48 hrs by replication-deffective luciferase reporter gene-based phenotypic assay; assay type: functional
[23] = tested on: Human immunodeficiency virus 1; assay: Resistance index, ratio of EC50 for HIV1 with protease 46I/82T/84V mutation to EC50 for wild type HIV1 NL4-3 in HEK293 cells after 48 hrs by replication-deffective luciferase reporter gene-based phenotypic assay; assay type: functional
[24] = tested on: Human immunodeficiency virus 1; assay: Resistance index, ratio of EC50 for HIV1 with protease 46L/54V/73C/84V/90M mutation to EC50 for wild type HIV1 NL4-3 in HEK293 cells after 48 hrs by replication-deffective luciferase reporter gene-based phenotypic assay; assay type: functional
[25] = tested on: Human immunodeficiency virus 1; assay: Resistance index, ratio of EC50 for HIV1 with protease 24I/33F/54V/82A/84V mutation to EC50 for wild type HIV1 NL4-3 in HEK293 cells after 48 hrs by replication-deffective luciferase reporter gene-based phenotypic assay; assay type: functional
[26] = tested on: Human immunodeficiency virus 1; assay: Resistance index, ratio of EC50 for HIV1 with protease 30N/33F/46L/54L/84V/88D mutation to EC50 for wild type HIV1 NL4-3 in HEK293 cells after 48 hrs by replication-deffective luciferase reporter gene-based phenotypic assay; assay type: functional
[27] = tested on: Human immunodeficiency virus 1; assay: Resistance index, ratio of EC50 for SQV-resistant HIV1 4596 carrying L10R/M46I/L63P/[…]/L90M mutation to EC50 for wild type HIV1 NL4-3 in HEK293 cells after 48 hrs by replication-deffective luciferase reporter gene-based phenotypic assay; assay type: functional
[28] = tested on: Human immunodeficiency virus 1; assay: Resistance index, ratio of EC50 for SQV-resistant HIV1 SaqR carrying G48V/L90MV mutation to EC50 for wild type HIV1 NL4-3 in HEK293 cells after 48 hrs by replication-deffective luciferase reporter gene-based phenotypic assay; assay type: functional

| Compound | Ratio EC50 [1] | Ratio EC50 [2] | Ratio EC50 [3] | Ratio EC50 [4] | Ratio EC50 [5] | CC50 at 144 h [6] [µM] | Ratio EC50 [7] | Ratio EC50 [8] | Ratio EC50 [9] | Ratio EC50 [10] | Ratio EC50 [11] | Ratio EC50 [15] | Ratio EC50 [16] | Ratio EC50 [17] | Ratio EC50 [18] | Ratio EC50 [20] | Ratio EC50 [21] | Ratio EC50 [22] | Ratio EC50 [24] | Ratio EC50 [26] | further results |
| --- | --- | --- | --- | --- | --- | --- | --- | --- | --- | --- | --- | --- | --- | --- | --- | --- | --- | --- | --- | --- | --- |
| Cc1c(O)cccc1C(=O)N[C@@H](CSc1ccccc1)[C@H](O)CN1C[C@H]2CCCC[C@H]2C[C@H]1C(=O)NC(C)(C)C | 30.8 | 14.9 | 27.9 | 3.5 | 3.6 | 8 | 11.1 | 27.3 | 12.1 | 19.4 | 25.4 | 43.6 | 1.6 | 8.8 | 28.3 | 14.5 | 14.1 | 20 | 82.6 | 400 | Ratio EC50 [12]: 172.1; Ratio EC50 [13]: 31.4; Ratio EC50 [14]: 8.1; Ratio EC50 [19]: 42.1; Ratio EC50 [23]: 1.6; Ratio EC50 [25]: 31.4 |
| COC(=O)N[C@H](C(=O)N[C@@H](Cc1ccccc1)[C@@H](O)CN(Cc1ccc(-c2ccccn2)cc1)NC(=O)[C@@H](NC(=O)OC)C(C)(C)C)C(C)(C)C [ATAZANAVIR] | 35.4 | 14.1 | 38 | 81.2 | – | 71 | 18.3 | 57.7 | – | 1.2 | 28 | 91.6 | 1.4 | 5.8 | 22.7 | 18.9 | 11.8 | 11.9 | 55.2 | 66.1 | – |
| COC(=O)N[C@H](C(=O)NCCCC[C@@H](CO)N(CC(C)C)S(=O)(=O)c1ccc(N)cc1)C(c1ccccc1)c1ccccc1 [PPL-100] | 7.5 | 3.4 | 6.3 | 1.1 | 2.7 | 37 | 17.8 | 13.5 | 2.3 | 1.4 | 1.1 | 13.4 | 0.9 | 3.7 | 5.5 | 1.7 | 3.2 | 5.3 | 10.8 | 23.2 | Activity [27]: 1.2; fold change (FC) [28]: 2.4; Ratio EC50 [12]: 37.2; Ratio EC50 [13]: 18.4; Ratio EC50 [14]: 6.4; Ratio EC50 [19]: 1.4; Ratio EC50 [23]: 1.2; Ratio EC50 [25]: 4.2 |
